From US20200113950A1, “Human microbiota derived N-acyl amides for the treatment of human disease” (The Rockefeller University, priority 2017, published 2020)
Entries after “also recorded” stand apart in the source; their conditions may differ. Each block holds one molecule with its values, some of them ahead of it.

Legend:
[1] = molecular target: T1, sphingosine-1-phosphate receptor 4 (S1PR4) (Homo sapiens, UniProt O95977); assay: β-arrestin cell-based GPCR assay (DiscoveRx), agonist mode, S1PR4; conditions: for agonist activity at / interaction with S1PR4: GPCR screen
T1 sequence (O95977 1-384): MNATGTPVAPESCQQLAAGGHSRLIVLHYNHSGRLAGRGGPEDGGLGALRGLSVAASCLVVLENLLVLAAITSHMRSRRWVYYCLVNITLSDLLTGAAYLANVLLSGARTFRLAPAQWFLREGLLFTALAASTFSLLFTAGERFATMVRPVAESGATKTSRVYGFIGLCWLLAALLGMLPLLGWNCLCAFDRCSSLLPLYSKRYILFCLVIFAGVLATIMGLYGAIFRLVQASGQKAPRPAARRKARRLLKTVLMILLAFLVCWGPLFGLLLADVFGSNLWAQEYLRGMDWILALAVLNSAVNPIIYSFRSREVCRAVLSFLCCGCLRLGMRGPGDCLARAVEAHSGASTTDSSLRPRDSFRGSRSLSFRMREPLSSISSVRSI
Procedure: The major N-acyl amide analog isolated from each family was assayed for agonist and antagonist activity against a panel of 240 human GPCRs (FIG. 3 and FIG. 8).
(§1) Using β-arrestin cell-based assays at 10 uM ligand concentration, agonist and antagonist activity was assessed by DiscoveRx against 168 GPCRs with known ligands as well as 72 orphan GPCRs. […] Synthetic N-acyl amides were assayed in the same fashion.

[2] = molecular target: S1PR1 (Homo sapiens, UniProt P21453); assay: β-arrestin GPCR screen, agonist mode, S1PR1; format: cell-based
S1PR1, sequence (P21453 whole entry): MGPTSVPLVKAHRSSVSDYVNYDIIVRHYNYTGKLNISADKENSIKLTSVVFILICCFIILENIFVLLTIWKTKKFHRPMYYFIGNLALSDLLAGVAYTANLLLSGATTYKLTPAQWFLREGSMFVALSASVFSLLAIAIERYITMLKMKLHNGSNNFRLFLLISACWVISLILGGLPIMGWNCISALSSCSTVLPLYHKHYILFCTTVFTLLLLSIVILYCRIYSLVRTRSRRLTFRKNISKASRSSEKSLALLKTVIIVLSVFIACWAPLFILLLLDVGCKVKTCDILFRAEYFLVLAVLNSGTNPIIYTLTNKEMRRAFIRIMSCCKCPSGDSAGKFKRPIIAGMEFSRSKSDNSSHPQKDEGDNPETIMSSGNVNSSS
Procedure: as §1

[3] = molecular target: S1PR2 (Homo sapiens, UniProt O95136); assay: β-arrestin GPCR screen, agonist mode, S1PR2; format: cell-based
S1PR2, sequence (O95136 whole entry): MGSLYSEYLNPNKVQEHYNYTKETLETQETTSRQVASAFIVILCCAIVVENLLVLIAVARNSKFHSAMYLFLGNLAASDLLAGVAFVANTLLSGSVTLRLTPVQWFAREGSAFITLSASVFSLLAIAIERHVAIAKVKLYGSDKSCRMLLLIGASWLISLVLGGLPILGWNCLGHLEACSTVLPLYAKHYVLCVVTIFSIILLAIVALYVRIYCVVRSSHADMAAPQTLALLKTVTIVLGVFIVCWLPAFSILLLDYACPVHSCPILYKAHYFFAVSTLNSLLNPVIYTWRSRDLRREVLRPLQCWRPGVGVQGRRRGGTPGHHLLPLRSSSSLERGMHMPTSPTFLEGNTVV
Procedure: as §1

[4] = molecular target: S1PR3 (Homo sapiens, UniProt Q99500); assay: β-arrestin GPCR screen, agonist mode, S1PR3; format: cell-based
S1PR3, sequence (Q99500 whole entry): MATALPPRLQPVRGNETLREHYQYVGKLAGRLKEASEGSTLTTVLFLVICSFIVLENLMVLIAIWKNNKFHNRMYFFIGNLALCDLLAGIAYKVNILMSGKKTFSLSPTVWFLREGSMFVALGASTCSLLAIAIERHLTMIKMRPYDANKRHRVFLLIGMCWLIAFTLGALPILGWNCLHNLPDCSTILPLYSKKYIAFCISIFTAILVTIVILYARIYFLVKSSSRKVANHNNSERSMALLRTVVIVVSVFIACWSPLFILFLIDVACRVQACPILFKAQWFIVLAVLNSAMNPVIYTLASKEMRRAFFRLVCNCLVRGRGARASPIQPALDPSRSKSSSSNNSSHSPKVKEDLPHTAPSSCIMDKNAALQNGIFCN
Procedure: as §1

[5] = test system: GLUTag cells; assay: GLP-1 release from GLUTag cells; format: cell-based, Murine; conditions: equimolar concentrations, 2 hours
Source text: (§2) GPR119 is the most extensively studied of the GPCRs activated by bacterial N-acyl amides (FIG. 4). Mechanisms that link endogenous GPR119 agonists (OEA, 2-OG) to changes in host phenotype are well defined as a result of the exploration of GPR119 as a therapeutic target for the treatment of diabetes and obesity. In fact, synthetic small molecule GPR119 agonists are in clinical trials as treatment for both diseases (Ritter et al., 2016, J Med Chem 59:3579-92; Nunez et al., 2014, PLoS One 9:e92494; Ha et al., 2014, Arch Pharm Res 37:671-8; Katz et al., 2012, Diabetes Obes Metab 14:709-16). GPR119 agonists are thought to affect diverse metabolic functions, primarily glucose homeostasis but also gastric emptying and appetite, in vivo through GPR119-dependent hormone release from enteroendocrine cells (GLP-1, GIP, PYY) and pancreatic β-cells (insulin) (Flock et al., 2011, Endorinol 152:374-83; Overton et al., 2006, Cell Metab 3:167-75; Chu et al., 2007, Endocrinol 148:2601-9; Chu et al., 2008, Endocrinol 149:2038-47; Lauffer et al., 2009, Diabetes 58:1058-66; Serrano et al., 2011, Neuropharmacol 60:593-601). Murine enteroendocrine GLUTag cells have been used as a model system for measuring the ability of potential GPR119 agonists to induce GLP-1 release. […] To provide an orthogonal measurement of GPR119 activation by N-acyl serinols, HEK293 cells were stably transfected with a GPR119 expression construct.
Oleoyl ethanolamide and 2-oleoyl glycerol were purchased from Cayman Chemical Company and resuspended in DMSO to a concentration of 10 mM. N-oleoyl serinol was isolated and purified in the same manner as N-palmitoyl serinol described above and confirmed by ^1H NMR and HRMS. N-oleoyl serinol was resuspended at 10 mM concentration in DMSO. GLUTag cells were obtained from the Mangelsdorf Lab (University of Texas Southwestern) with permission from Daniel Drucker (Mount Sinai Hospital Toronto). […] Media was then collected, centrifuged at 500×g (4° C.) for 5 minutes and cell free supernatant was analyzed for GLP-1 level using the Active GLP-1 V2 kit (Mesoscale Discovery). […]

[6] = molecular target: T2, G2A (Homo sapiens, UniProt Q9UNW8); assay: β-arrestin cell-based GPCR assay (DiscoveRx), agonist mode, orphan receptor G2A; conditions: for activation of G2A: GPCR screen
T2 sequence (Q9UNW8 1-380): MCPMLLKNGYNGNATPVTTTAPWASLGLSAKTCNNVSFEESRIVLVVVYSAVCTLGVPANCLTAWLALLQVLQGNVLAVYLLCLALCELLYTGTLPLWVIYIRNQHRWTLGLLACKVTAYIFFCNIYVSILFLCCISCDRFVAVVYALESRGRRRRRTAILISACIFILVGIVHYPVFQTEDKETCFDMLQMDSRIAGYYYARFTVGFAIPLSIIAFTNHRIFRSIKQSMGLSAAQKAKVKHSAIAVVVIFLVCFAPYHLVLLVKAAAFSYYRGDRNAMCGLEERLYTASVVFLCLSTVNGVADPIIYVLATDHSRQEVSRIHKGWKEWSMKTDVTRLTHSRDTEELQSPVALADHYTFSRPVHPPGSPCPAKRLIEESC
Procedure: (§3) The major N-acyl amide analog isolated from each family was assayed for agonist and antagonist activity against a panel of 240 human GPCRs (FIG. 3 and FIG. 8). […] The maximal activation of GPR119 and S1PR4 by the bacterial N-acyl amides was similar to the endogenous ligand (GPR119 100%, S1PR4 80%). Interactions between the bacterial N-acyl amides and GPCRs were also specific (FIG. 3A and FIG. 3B).
(§4) For each of the 6 N-acyl amide families (1-6) the analogue produced at the highest level in the heterologous expression experiments was assayed for GPCR activity. In the case of family 4 the major lysine analogue (N-3-hydroxyoleoyl lysine) was screened. Using β-arrestin cell-based assays at 10 uM ligand concentration, agonist and antagonist activity was assessed by DiscoveRx against 168 GPCRs with known ligands as well as 72 orphan GPCRs. […] Synthetic N-acyl amides were assayed in the same fashion.

[7] = molecular target: PTGIR (Homo sapiens, UniProt P43119); assay: β-arrestin cell-based GPCR assay (DiscoveRx), antagonist mode, PTGIR
PTGIR, sequence (P43119 whole entry): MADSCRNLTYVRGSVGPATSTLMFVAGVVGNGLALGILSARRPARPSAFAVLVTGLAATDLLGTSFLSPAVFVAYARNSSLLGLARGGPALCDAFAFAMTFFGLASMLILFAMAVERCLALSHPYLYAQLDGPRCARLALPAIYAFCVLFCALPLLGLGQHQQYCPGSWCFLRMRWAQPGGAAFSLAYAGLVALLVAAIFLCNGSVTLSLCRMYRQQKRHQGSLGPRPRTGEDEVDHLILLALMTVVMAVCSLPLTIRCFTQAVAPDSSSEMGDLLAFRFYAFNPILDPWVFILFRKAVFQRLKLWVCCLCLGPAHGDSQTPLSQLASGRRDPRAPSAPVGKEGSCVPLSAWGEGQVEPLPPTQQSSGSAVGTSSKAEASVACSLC
Procedure: as §3, §4

[8] = molecular target: PTGER4 (Homo sapiens, UniProt P35408); assay: β-arrestin cell-based GPCR assay (DiscoveRx), antagonist mode, PTGER4
PTGER4, sequence (P35408 whole entry): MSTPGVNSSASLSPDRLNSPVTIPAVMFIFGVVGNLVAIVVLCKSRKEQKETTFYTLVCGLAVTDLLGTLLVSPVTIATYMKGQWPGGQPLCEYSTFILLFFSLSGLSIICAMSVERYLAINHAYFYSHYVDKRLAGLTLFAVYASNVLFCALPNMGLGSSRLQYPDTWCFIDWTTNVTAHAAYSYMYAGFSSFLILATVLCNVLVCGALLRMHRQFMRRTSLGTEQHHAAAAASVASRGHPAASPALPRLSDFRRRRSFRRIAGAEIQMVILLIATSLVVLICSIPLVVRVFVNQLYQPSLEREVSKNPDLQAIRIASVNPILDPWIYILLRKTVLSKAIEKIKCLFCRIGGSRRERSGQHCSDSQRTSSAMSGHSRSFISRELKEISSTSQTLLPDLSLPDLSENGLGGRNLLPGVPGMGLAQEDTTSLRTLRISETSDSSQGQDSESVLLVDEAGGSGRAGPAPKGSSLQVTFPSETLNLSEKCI
Procedure: as §3, §4

[9] = molecular target: T3, GPR119 (Homo sapiens, UniProt Q8TDV5); assay: β-arrestin cell-based GPCR assay (DiscoveRx), agonist mode, GPR119; conditions: for interaction with GPR119: GPCR screen and dose response, FIG. 8
T3 sequence (Q8TDV5 1-335): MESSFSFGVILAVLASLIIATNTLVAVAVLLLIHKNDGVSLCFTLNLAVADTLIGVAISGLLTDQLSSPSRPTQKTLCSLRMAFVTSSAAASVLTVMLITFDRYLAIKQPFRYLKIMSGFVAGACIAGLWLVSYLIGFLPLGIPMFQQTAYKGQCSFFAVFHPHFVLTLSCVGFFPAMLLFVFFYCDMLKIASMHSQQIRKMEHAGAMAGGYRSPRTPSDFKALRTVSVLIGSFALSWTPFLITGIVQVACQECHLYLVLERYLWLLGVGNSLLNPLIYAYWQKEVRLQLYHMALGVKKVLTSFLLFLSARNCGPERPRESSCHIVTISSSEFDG
Procedure: as §3, §4

[10] = mice; cited from earlier work
[11] = molecular target: T3, GPR119; assay: cAMP secondary assay in ACTOne HEK293 cells transfected with GPR119; format: cell-based; parameters: expressed in transfected cells; host or cells: ACTOne HEK293 cells; conditions: for cellular cAMP concentration: HEK293 cells stably transfected with GPR119 vs native cells
Procedure: FIG. 10 depicts a secondary assay of GPR119. ACTOne HEK293 cells (control) and ACTOne HEK293 cells transfected with GPR119 were exposed to equimolar concentrations of the endogenous GPR119 ligand oleoylethanolamide or the bacterial ligand N-oleoyl serinol. Relative fluorescent intensity was recorded for each ligand concentration compared to background signal. All data points were performed in quadruplicate and error bars represent SD around the mean. […] The DCEA [5-(N-Ethylcarboxamido)adenosine] control is presented to confirm cAMP response of the parental cell line.
as §2

Compound: CCCCCCCC/C=C\CCCCCCCC(=O)OC(CO)CO [Compound 2-OG, 2-oleoyl glycerol]
- GLP-1 secretion [5]: induced GLP-1 secretion to the same magnitude

Compound: CCCCCCCC/C=C\CCCCCCCC(=O)NCCO [OEA, oleoylethanolamide]
- EC50 ([9]; β-arrestin assay, dose response in duplicate, read-out: EC50, activation of GPR119): 7 µM
- GLP-1 secretion [5]: induced GLP-1 secretion to the same magnitude
- blood glucose in OGTT after intravenous delivery [10]: fails to lower blood glucose
- EC50 ([11]; HEK293 cells expressing GPR119, quadruplicate, read-out: EC50, cAMP response): 5.1 µM
- cellular cAMP concentration [11]: increased cellular cAMP concentrations in a GPR119 dependent fashion

Compound: CCCCCCCCCCCCCC(O)CC(=O)N[C@@H](CCCCN)C(=O)O (stereo partly shown) [N-3-hydroxypalmitoyl lysine]
- agonist activity at / interaction with S1PR4 [1]: specific agonist of S1PR4; also recorded: interacts with S1PR4

Compound: CCCCCCCCCCCCCCCC(=O)NC(CO)CO [N-palmitoyl serinol]
- interaction with GPR119 [9]: interacts with GPR119
- Emax ([9]; relative to endogenous ligand, read-out: maximal activation of GPR119 compared with the endogenous ligand): 100%

Compound: CCCCCCCCCCCCC/C=C/[C@@H](O)[C@@H](N)COP(=O)(O)O [Compound S1P, sphingosine-1-phosphate, reference compound]
- agonist activity at / interaction with S1PR4 [1]: activates
- EC50 ([1]; β-arrestin assay, dose response in duplicate, read-out: EC50, activation of S1PR4): 0.09 µM
- activation of S1PR1 [2]: activates
- activation of S1PR2 [3]: activates
- activation of S1PR3 [4]: activates

Compound: CCCCCCCC/C=C\CCCCCCCC(=O)NC(CO)CO [N-oleoyl serinol]
- interaction with GPR119 [9]: interacts with GPR119
- maximum GPR119 activation compared with OEA ([9]; β-arrestin assay, FIG. 5A): ~2 fold
- GLP-1 secretion [5]: induced GLP-1 secretion to the same magnitude
- cellular cAMP concentration [11]: increased cellular cAMP concentrations in a GPR119 dependent fashion

Further lines, with some results ahead:

- Emax ([1]; relative to endogenous ligand, read-out: maximal activation of S1PR4 compared with the endogenous ligand): 80%
- activation of S1PR1 [2]: did not activate
- activation of S1PR2 [3]: did not activate
- activation of S1PR3 [4]: did not activate
Compound: CCCCCCCCCCCCCC(O)CC(=O)NC(CCCN)C(=O)O (stereo not shown) [N-3-hydroxypalmitoyl ornithine, N-3-OH-palmitoyl ornithine]
- agonist activity at / interaction with S1PR4 [1]: specific agonist of S1PR4; also recorded: interacts with S1PR4

- activation of G2A [6]: activate G2A
Compound: CCCCCCCCCCCCCCCC(=O)N[C@@H](C)C(=O)O [N-palmitoyl alanine]

- activation of G2A [6]: activates G2A
Compound: CCCCCCCCCCCCCCCC(=O)NCC(=O)O [N-palmitoyl glycine]

- antagonism of PTGIR ([7]; antagonist screen): specifically antagonized
- IC50 ([7]; in the presence of endogenous ligand, read-out: IC50, antagonist activity against PTGIR): 15 µM
- antagonism of PTGER4 ([8]; antagonist screen): antagonized
- IC50 ([8]; in the presence of endogenous ligand, read-out: IC50, antagonist activity against PTGER4): 43 µM
Compound: CCCCCCCCCCCC(O)CC(=O)OC(CCCCCCC)CC(=O)N[C@@H](CCC(N)=O)C(=O)O (stereo partly shown) [N-acyloxyacyl glutamine, 3-[(3-OH-myristoyl)oxy]decanoyl glutamine]

- EC50 ([6]; β-arrestin assay, dose response, read-out: EC50, activation of G2A): 3 µM
Compound: CCCCCCCCCCCCCC(=O)N[C@@H](C)C(=O)O [N-myristoyl alanine]

- activation of G2A [6]: activate G2A
Compound: CCCCCCCCCCCCCC(O)CC(=O)NCC(=O)O (stereo not shown) [N-3-hydroxypalmitoyl glycine]
